Patent publication US11773071B2, “Benzothiazepine compounds and their use as bile acid modulators” (Albireo AB, priority 2019, dated 2023)

Columns and labels:
[1] = Bidirectional permeability assay (Caco-2 cells); assay type: in vitro ADME; details: human, Caco-2, absorptive direction (A2B), 10 μM in FaSSIF buffer
Experimental: Bidirectional Permeability Assay (Caco-2 Cells)
Caco-2 cells (Evotec) were seeded at a density of 70,000 cells/well in Millicell® 24-well cell culture insert plates and maintained in an incubator (37° C., 5% CO2, 95% RH) for 21 days with media change on alternate days.
Stock solutions (10 mM) of the test compounds, atenolol (low permeability marker), propranolol (high permeability marker) and digoxin (substrate for P-gp transport pathway) were prepared in dimethylsulfoxide (DMSO). An intermediate stock solution (1 mM) was prepared by diluting 10 μL of 10 mM master stock solution with 90 μL of neat DMSO. A working stock solution (10 μM) was prepared by diluting 50 μL of 1 mM with 4950 μL of FaSSIF buffer. Post addition of compounds to the FaSSIF, samples were subjected to sonication for 2 hours, and centrifuged at 4000 RPM for 30 minutes at 37° C. The 4 mL of resultant supernatant was directly used in the assay. The final DMSO concentration in the transport experiments was 1%.
On the day of assay, Caco-2 monolayers were washed twice with transport buffer (HBSS, pH 7.4) and pre-incubated for 30 min (37° C., 5% CO2, 95% RH) in an incubator. The electrical resistance of the monolayers was measured with a Millicell®—ERS system. Monolayers with trans-epithelial electrical resistance (TEER) values greater than 350 ohm·cm^2 were selected for the assay.
The assay was conducted in absorptive direction (A2B) and secretory (B2A) directions. Transport experiments were initiated by addition of transport assay buffer (FaSSIF buffer prepared in HBSS) consisting of compounds to the donor compartment (apical chamber A-B; basolateral chamber B-A) in duplicate (n=2) wells. Drug free HBSS buffer (pH 7.4) containing 1% bovine serum albumin (BSA) was introduced to the receiver (A-B-basolateral; B-A-Apical) compartments. The volumes of apical and basolateral compartments were 0.4 and 0.8 mL, respectively. After adding dosing solution, plates were incubated in an incubator for 120 minutes at 37° C. After 120 minutes, donor and receiver samples were collected and matrix matched (1:1, 30 μL study sample+30 μL blank buffer) with the opposite buffer. Dosing samples matrix matched (1:1, 30 μL study sample+30 μL blank buffer) with the opposite buffer. Samples were processed by adding acetonitrile containing internal standard (60 μL study sample+200 μL acetonitrile containing internal standard—Tolbutamide, 500 ng/mL). Samples were vortexed and centrifuged at 4000 rpm for 10 minutes. The obtained supernatant (100 μL) was diluted with 100 μL of water and transferred to fresh 96 well plates. The concentration of compounds in the samples was analyzed by liquid chromatography tandem mass spectrometry (LC-MS/MS) method using discovery grade bio-analytical method, as applicable.
The mean apparent permeability (Papp,×10^−6 cm/sec) of the test compounds, atenolol, propranolol and digoxin were calculated as follows:
[formula] where dq/dt=rate of transport (rate of transport of compound in the receiver compartment), C0=initial concentration in the donor compartment, A=surface area of the effective filter membrane.

Human IBAT = molecular target: T1, Human IBAT (Homo sapiens, UniProt Q12908); test: IBAT (h/m) assay, human IBAT-overexpressing cells, 3H-taurocholic acid uptake; assay type: cell-based; details: 0.25 μM 3H-taurocholic acid and 5 μM cold taurocholic acid, 20 minutes, read-out: hIBAT IC50
T1 construct: expressed in transfected cells; Puromycin-selected
T1 sequence (Q12908 1-348): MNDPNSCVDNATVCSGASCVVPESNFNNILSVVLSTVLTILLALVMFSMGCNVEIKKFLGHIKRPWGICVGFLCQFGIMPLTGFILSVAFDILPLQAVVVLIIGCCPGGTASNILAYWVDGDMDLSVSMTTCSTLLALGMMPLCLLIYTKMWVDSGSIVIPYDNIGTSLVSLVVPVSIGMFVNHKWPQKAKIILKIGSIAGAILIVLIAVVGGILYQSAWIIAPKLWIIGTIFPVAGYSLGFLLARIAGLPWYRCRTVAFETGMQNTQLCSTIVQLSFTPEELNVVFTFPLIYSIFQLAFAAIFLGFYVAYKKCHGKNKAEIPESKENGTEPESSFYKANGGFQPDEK
Procedure, shortened: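 Human or mouse IBAT-overexpressing cells, seeded 48 h before the assay, were incubated 20 min at 37 °C with 0.25 μM 3H-taurocholic acid plus 5 μM cold taurocholic acid and inhibitor (10-point 3-fold series from 10 μM top, 0.2% DMSO final), in duplicate. After ice stop and washes with 1 mM cold taurocholate, uptake was read by scintillation counting.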

Papp A→B at 120 min, 10 μM [1] | IC50 (Human IBAT) | Compound
3.2 ×10⁻⁶ cm/s | 16 nM | CCCCC1(CC)CN(c2ccccc2)c2cc(SC)c(OCC(C)(O)C(=O)O)cc2S(=O)(=O)C1 (single isomer, unassigned) [48, diastereomer 2]
 | 4 nM | CCCCC1(CCCC)CN(c2ccccc2)c2cc(SC)c(OCC(O)C(=O)O)cc2S(=O)(=O)C1 (single isomer, unassigned) [Example 11, 3-((3,3-dibutyl-7-(methylthio)-1,1-dioxido-5-phenyl-2,3,4,5-tetrahydro-1,5-benzothiazepin-8-yl)oxy)-2-hydroxypropanoic acid]
1.6 ×10⁻⁶ cm/s | 3 nM | CCCCC1(CCCC)CN(c2ccccc2)c2cc(SC)c(OCC(O)C(=O)O)cc2S(=O)(=O)C1 (racemic) [Example 9, 3-((3,3-Dibutyl-7-(methylthio)-1,1-dioxido-5-phenyl-2,3,4,5-tetrahydro-1,5-benzothiazepin-8-yl)oxy)-2-hydroxypropanoic acid]
2.1 ×10⁻⁶ cm/s | 1 nM | CCCCC1(CCCC)CN(c2ccccc2)c2cc(SC)c(OCC(O)C(=O)O)cc2S(=O)(=O)C1 (single isomer, unassigned) [Example 10, 3-((3,3-dibutyl-7-(methylthio)-1,1-dioxido-5-phenyl-2,3,4,5-tetrahydro-1,5-benzothiazepin-8-yl)oxy)-2-hydroxypropanoic acid]
20.5 ×10⁻⁶ cm/s | 5 nM | CCCCC1(C)CN(c2ccccc2)c2cc(N(C)C)c(OCCC(=O)O)cc2S(=O)(=O)C1 (single isomer, unassigned) [29, enantiomer 1]
4 ×10⁻⁶ cm/s | 4 nM | CCCCC1(CC)CN(c2ccccc2)c2cc(SC)c(OCC(C)(F)C(=O)O)cc2S(=O)(=O)C1 (single isomer, unassigned) [35, diastereomer 1]
2.2 ×10⁻⁶ cm/s | 26 nM | CCCCC1(CCCC)CN(c2ccccc2)c2cc(Br)c(OCCC(=O)O)cc2S(=O)(=O)C1 [Example 4, 3-((7-Bromo-3,3-dibutyl-1,1-dioxido-5-phenyl-2,3,4,5-tetrahydro-1,5-benzothiazepin-8-yl)oxy)propanoic acid]
13.4 ×10⁻⁶ cm/s | 18 nM | CCCCC1(CC)CN(c2ccccc2)c2cc(Br)c(OCCC(=O)O)cc2S(=O)(=O)C1 (racemic) [Example 1, 3-((7-Bromo-3-butyl-3-ethyl-1,1-dioxido-5-phenyl-2,3,4,5-tetrahydro-1,5-benzothiazepin-8-yl)oxy)propanoic acid]
3.3 ×10⁻⁶ cm/s | 3 nM | CCCCC1(C)CN(c2ccccc2)c2cc(SC)c(OCC(O)C(=O)O)cc2S(=O)(=O)C1 (single isomer, unassigned) [32, diastereomer 1]
10.3 ×10⁻⁶ cm/s | 4 nM | CCCCC1(CC)CN(c2ccccc2)c2cc(SC)c(OCCC(=O)O)cc2S(=O)(=O)C1 (single isomer, unassigned) [Example 13, 3-((3-butyl-3-ethyl-7-(methylthio)-1,1-dioxido-5-phenyl-2,3,4,5-tetrahydro-1,5-benzothiazepin-8-yl)oxy)propanoic acid]
22.5 ×10⁻⁶ cm/s | 7 nM | CCCCC1(C)CN(c2ccccc2)c2cc(SC)c(OCCC(=O)O)cc2S(=O)(=O)C1 (single isomer, unassigned) [Example 24, 3-((3-butyl-3-methyl-7-(methylthio)-1,1-dioxido-5-phenyl-2,3,4,5-tetrahydro-1,5-benzothiazepin-8-yl)oxy)propanoic acid]
3.4 ×10⁻⁶ cm/s | 6 nM | CCCCC1(CC)CN(c2ccccc2)c2cc(Br)c(OCCC(=O)O)cc2S(=O)(=O)C1 (single isomer, unassigned) [Example 2, 3-((7-bromo-3-butyl-3-ethyl-1,1-dioxido-5-phenyl-2,3,4,5-tetrahydro-1,5-benzothiazepin-8-yl)oxy)propanoic acid]
5.4 ×10⁻⁶ cm/s | 12 nM | CCCCC1(CC)CN(c2ccccc2)c2cc(SC)c(OCC(C)(F)C(=O)O)cc2S(=O)(=O)C1 (stereo not shown) [Example 34, 3-((3-butyl-3-ethyl-7-(methylthio)-1,1-dioxido-5-phenyl-2,3,4,5-tetrahydro-1,5-benzothiazepin-8-yl)oxy)-2-fluoro-2-methylpropanoic acid]
9 ×10⁻⁶ cm/s | 22 nM | CCCCC1(CC)CN(c2ccccc2)c2cc(Cl)c(OC(C)CC(=O)O)cc2S(=O)(=O)C1 (single isomer, unassigned) [30, diastereomer 1]
13.6 ×10⁻⁶ cm/s | 17 nM | CCCCC1(CC)CN(c2ccccc2)c2cc(Cl)c(OCCC(=O)O)cc2S(=O)(=O)C1 (single isomer, unassigned) [Example 6, 3-((3-butyl-7-chloro-3-ethyl-1,1-dioxido-5-phenyl-2,3,4,5-tetrahydro-1,5-benzothiazepin-8-yl)oxy)propanoic acid]
9.7 ×10⁻⁶ cm/s | 32 nM | CCCCC1(CCCC)CN(c2ccccc2)c2cc(SC)c(OCCC(=O)O)cc2S(=O)(=O)C1 [Example 15, 3-((3,3-dibutyl-7-(methylthio)-1,1-dioxido-5-phenyl-2,3,4,5-tetrahydro-1,5-benzothiazepin-8-yl)oxy)propanoic acid]
